# Data published in patent publication US9089540B2, “Method for determination of sensitivity to anti-cancer agent” (KEIO UNIVERSITY, priority 2008, dated 2015).
# pIC50: −log10 of the molar value.
# Assays:
# [1] = human, in vivo, 100 mg/m2
# [2] = roughly corresponding to the cut off value; cited from earlier work
# [3] = tested on: 5 kinds of human colorectal cancer cell lines (COLO320, HCT-15, HT-29, LS174T, HCT116); test: Evaluation of SN-38 sensitivity, MTS assay (cell survival rate); type: cell-based; details: 72 hours exposure, range over 5 cell lines, read-out: IC50 value of each cell line (SN-38 sensitivity)
# Protocol: After exposure of each cell line to 0 to 1,000 μmol/Loxaliplatin for 48 hours, a cell survival rate was evaluated with MTS assay (CellTiter96™ AQueous One Solution Cell Proliferation Assay, Promega). Then, IC50 value (a concentration at which the number of cells is suppressed to 50% with respect to that in an oxaliplatin-untreated well) was calculated and used as an oxaliplatin sensitivity in each cell line. The evaluation of the sensitivity was performed four times with cells having different passage numbers and the average value and the standard deviation value thereof were calculated.
# As cells, 5 kinds of human colorectal cancer cell lines (COLO320, HCT-15, HT-29, LS174T, HCT116 (HCT116 was obtained from ECACC)), and as a drug, an irinotecan active metabolite (SN-38, obtained from Yakult Honsha, Co., Ltd.) were used. The cell survival rate after exposure to 0 to 1,000 nmol/L SN-38 for 72 hours was evaluated by MTS assay in the same manner as in Example 1 and the IC50 value was calculated. […] For the analysis, ProteinChip™ Reader (Model PCS4000 Personal Edition, Bio-Rad) was used, and the analysis was performed under the following conditions: mass range, 0 to 70,000 daltons; focus mass, 11,000 daltons; energy, 3,000 nJ; and 265 shots in total per sample. […]
# [4] = Clinical blood exposure to SN-38 after irinotecan administration, calculated from interview form parameters; type: in vivo, human
# Protocol: Based on the pharmacokinetic parameters of SN-38 (Campto™, interview form), the area under the curve of SN-38 blood concentration (AUCSN-38) obtained after the first irinotecan administration of the colon cancer therapy regimen (180 mg/m^2/day) was calculated to be 1,449 nmol·h/L. The concentration of SN38 required to obtain the same exposure amount through 72-hour exposure employed in this Example was calculated to be 20 nM. Therefore, a cut off value was set to 20 nM for the IC50 value of each cancer cell line with respect to SN-38 and the cancer cell lines were classified into two groups of a high sensitivity group and a low sensitivity group. As a result, there was a significant increase in the peak intensity of the peak detected at m/z of 11,000 to 11,100 in the low sensitivity group (FIG. 6).
smiles,measurement,setting,value
"N.N.[Cl][Pt][Cl] [cisplatin, cis-Diammineplatinum(II) dichrolide]",Cmax,[1],9.5 to 11 µM
"O=C1[O][Pt]2([NH][C@@H]3CCCC[C@H]3[NH]2)[O]C1=O [oxaliplatin, (SP-4-2)-[(1R,2R)-cyclohexane-1,2-diamine-κN,κN′][ethanedioato (2-)-κO^1,κO^2]platinum]",peak blood concentration at the time of clinical use,[2],~5.0 µM
CCc1c2c(nc3ccc(O)cc13)-c1cc3c(c(=O)n1C2)COC(=O)[C@]3(O)CC [SN-38],pIC50,[3],7.47 to 8.47
same,concentration of SN38 required to obtain the same exposure amount through 72-hour exposure,[4]; AUC equivalent over 72-hour exposure,0.02 µM
same,area under the curve of SN-38 blood concentration (AUCSN-38),"[4]; after first irinotecan administration of colon cancer regimen, 180 mg/m^2/day","1,449 nmol·h/L"
